Each compound was assayed on maximal electroshock seizures (assay: Maximal electroshock seizure (MES) test). Settings: MES test, mice, 100 mg/kg.
Assay type: in vivo, mouse
Procedure: For in vivo tests that assessed anticonvulsant properties of the test compounds 3a–3j adult male Albino Swiss (CD-1) mice weighing between 18 and 22 g were used. The animals were housed in groups of ten mice per cage at room temperature of 22 ± 2 °C, under light/dark (12:12) cycle. The animals had free access to food and tap water before the experiments. The ambient temperature of the experimental room and humidity (50 ± 10%) were kept consistent throughout all the tests. For behavioral experiments the animals were selected randomly. Each experimental group consisted of 4–8 animals/dose. The experiments were performed between 9 AM and 2 PM. Immediately after the in vivo assay the animals were euthanized by cervical dislocation. All procedures were approved by the Local Ethics Committee of the Jagiellonian University in Krakow (34/2018, 1.02.2018)) and the treatment of animals was in full accordance with ethical standards laid down in respective Polish and EU regulations (Directive No. 86/609/EEC). For in vivo tests the compounds 3a–3j were prepared in 1% Tween 80 solution (POCH, Poland) and they were administered by the intraperitoneal route. Control mice received 1% Tween 80. Pentylenetetrazole (PTZ), pilocarpine hydrochloride and scopolamine butylbromide were provided by Sigma Aldrich (Poland). For the tests they were prepared in 0.9% saline (Polfa Kutno, Poland). PTZ and pilocarpine were administered 60 min after the test compound or vehicle. To assess anticonvulsant properties of the test compounds anticonvulsant screening was conducted. Four assays were used: PTZ, maximal electroshock seizure (MES), 6-Hz and pilocarpine tests. In these assays the dose of 100 mg/kg was chosen as a starting dose. If it turned out to be effective, a lower dose (30 mg/kg) was also tested. MES test was performed according to a method previously described (Sałat et al. [2005]). In this test vehicle-treated mice and drug-treated mice received a stimulus of 25 mA delivered by an electroshock generator (Hugo Sachs rodent shocker, Germany) to induce maximal seizures (tonic extension) of hind limbs. Electroconvulsions were produced with the use of auricular electrodes and the stimulus duration was 0.2 s. Tonic extension of the hind limbs was regarded as the endpoint for this procedure.

Structure (SMILES) | animals with reduced seizures [%]
Clc1ccc(-c2csc(N/N=C/C3CC3)n2)cc1 [Compound 3c, (E)-4-(4-Chlorophenyl)-2-(2-(cyclopropylmethylene)hydrazinyl)thiazole] | 75
FC(F)(F)c1ccc(-c2csc(N/N=C/C3CC3)n2)cc1 [Compound 3e, (E)-2-(2-(Cyclopropylmethylene)hydrazinyl)-4-(4-(trifluoromethyl)phenyl)thiazole] | 63

Same assay, conditions: Mus musculus; MES test, mice, 30 mg/kg ip; read-out: X/Y number of mice protected (X) per number of mice tested (Y)

Structure (SMILES) | responders at 30 mg/kg [%]
Clc1ccc(-c2csc(N/N=C/C3CC3)n2)cc1 [Compound 3c, (E)-4-(4-Chlorophenyl)-2-(2-(cyclopropylmethylene)hydrazinyl)thiazole] | 0
FC(F)(F)c1ccc(-c2csc(N/N=C/C3CC3)n2)cc1 [Compound 3e, (E)-2-(2-(Cyclopropylmethylene)hydrazinyl)-4-(4-(trifluoromethyl)phenyl)thiazole] | 0

Same assay, conditions: Mus musculus; MES test, mice, 100 mg/kg ip; read-out: X/Y number of mice protected (X) per number of mice tested (Y) (converted)

Structure (SMILES) | responders at 100 mg/kg [%]
Fc1ccc(-c2csc(N/N=C/C3CC3)n2)cc1 [Compound 3a, (E)-2-(2-(Cyclopropylmethylene)hydrazinyl)-4-(4-fluorophenyl)thiazole] | 37.5
Brc1ccc(-c2csc(N/N=C/C3CC3)n2)cc1 [Compound 3b, (E)-4-(4-Bromophenyl)-2-(2-(cyclopropylmethylene)hydrazinyl)thiazole] | 37.5
Clc1ccc(-c2csc(N/N=C/C3CC3)n2)cc1 [Compound 3c, (E)-4-(4-Chlorophenyl)-2-(2-(cyclopropylmethylene)hydrazinyl)thiazole] | 75
Cc1ccc(-c2csc(N/N=C/C3CC3)n2)cc1 [Compound 3d, (E)-2-(2-(Cyclopropylmethylene)hydrazinyl)-4-p-tolylthiazole] | 37.5
FC(F)(F)c1ccc(-c2csc(N/N=C/C3CC3)n2)cc1 [Compound 3e, (E)-2-(2-(Cyclopropylmethylene)hydrazinyl)-4-(4-(trifluoromethyl)phenyl)thiazole] | 62.5
COc1ccc(-c2csc(N/N=C/C3CC3)n2)cc1 [Compound 3f, (E)-2-(2-(Cyclopropylmethylene)hydrazinyl)-4-(4-methoxyphenyl)thiazole] | 50
Fc1ccc(-c2csc(N/N=C/C3CC3)n2)c(F)c1 [Compound 3g, (E)-2-(2-(Cyclopropylmethylene)hydrazinyl)-4-(2,4-difluorophenyl)thiazole] | 37.5
N#Cc1ccc(-c2csc(N/N=C/C3CC3)n2)cc1 [Compound 3h, (E)-4-(2-(2-(Cyclopropylmethylene)hydrazinyl)thiazol-4-yl)benzonitrile] | 50
[N-]=[N+]=Nc1ccc(-c2csc(N/N=C/C3CC3)n2)cc1 [Compound 3i, (E)-4-(4-Azidophenyl)-2-(2-(cyclopropylmethylene)hydrazinyl)thiazole] | 37.5
O=[N+]([O-])c1ccc(-c2csc(N/N=C/C3CC3)n2)cc1 [Compound 3j, (E)-2-(2-(Cyclopropylmethylene)hydrazinyl)-4-(4-nitrophenyl)thiazole] | 50

Same assay, conditions: mice, 30 mg/kg

Structure (SMILES) | anticonvulsant activity in MES test
Clc1ccc(-c2csc(N/N=C/C3CC3)n2)cc1 [Compound 3c, (E)-4-(4-Chlorophenyl)-2-(2-(cyclopropylmethylene)hydrazinyl)thiazole] | not active
FC(F)(F)c1ccc(-c2csc(N/N=C/C3CC3)n2)cc1 [Compound 3e, (E)-2-(2-(Cyclopropylmethylene)hydrazinyl)-4-(4-(trifluoromethyl)phenyl)thiazole] | not active

What follows are compounds tested on 6-Hz psychomotor seizures (assay: 6-Hz test). Settings: Mus musculus, mice, 30 mg/kg ip, read-out: X/Y number of mice protected (X) per number of mice tested (Y) (converted).
Assay type: in vivo, mouse
Procedure: For in vivo tests that assessed anticonvulsant properties of the test compounds 3a-3j adult male Albino Swiss (CD-1) mice weighing between 18 and 22 g were used. The animals were housed in groups of ten mice per cage at room temperature of 22 ± 2 °C, under light/dark (12:12) cycle. The animals had free access to food and tap water before the experiments. The ambient temperature of the experimental room and humidity (50 ± 10%) were kept consistent throughout all the tests. For behavioral experiments the animals were selected randomly. Each experimental group consisted of 4-8 animals/dose. The experiments were performed between 9 AM and 2 PM. Immediately after the in vivo assay the animals were euthanized by cervical dislocation. All procedures were approved by the Local Ethics Committee of the Jagiellonian University in Krakow (34/2018, 1.02.2018)) and the treatment of animals was in full accordance with ethical standards laid down in respective Polish and EU regulations (Directive No. 86/609/EEC). For in vivo tests the compounds 3a-3j were prepared in 1% Tween 80 solution (POCH, Poland) and they were administered by the intraperitoneal route. Control mice received 1% Tween 80. Pentylenetetrazole (PTZ), pilocarpine hydrochloride and scopolamine butylbromide were provided by Sigma Aldrich (Poland). For the tests they were prepared in 0.9% saline (Polfa Kutno, Poland). PTZ and pilocarpine were administered 60 min after the test compound or vehicle. To assess anticonvulsant properties of the test compounds anticonvulsant screening was conducted. Four assays were used: PTZ, maximal electroshock seizure (MES), 6-Hz and pilocarpine tests. In these assays the dose of 100 mg/kg was chosen as a starting dose. If it turned out to be effective, a lower dose (30 mg/kg) was also tested. This test was performed according to (Barton et al. [2001]). It is an alternative electroshock paradigm that involves low-frequency (6 Hz), long-duration (3 s) electrical stimulation. Corneal stimulation (0.2 ms-duration monopolar rectangular pulses at 6 Hz for 3 s) was delivered by a constant-current device. During electrical stimulation mice were manually restrained and released into the observation cage immediately after current application. At the time of drug administration a drop of 0.5% tetracaine ([…] sterile solution, […] Pharmaceuticals Inc., USA) was applied into the eyes of all animals. Prior to the placement of corneal electrodes, a drop of 0.9% saline was applied on the eyes. In this model seizures manifest in 'stunned' posture associated with rearing, forelimb automatic movements and clonus, twitching of the vibrissae and Straub-tail. At the end of the seizure episode the animals resume their normal exploratory behavior. In this test protection against a seizure episode is considered as the end point and animals are considered to be protected if they resume their normal exploratory behavior within 10 s after electrical stimulation.

Structure (SMILES) | responders at 30 mg/kg [%]
[N-]=[N+]=Nc1ccc(-c2csc(N/N=C/C3CC3)n2)cc1 [Compound 3i, (E)-4-(4-Azidophenyl)-2-(2-(cyclopropylmethylene)hydrazinyl)thiazole] | 25

Same assay, conditions: Mus musculus, mice, 100 mg/kg ip, read-out: X/Y number of mice protected (X) per number of mice tested (Y) (converted)

Structure (SMILES) | responders at 100 mg/kg [%]
Fc1ccc(-c2csc(N/N=C/C3CC3)n2)cc1 [Compound 3a, (E)-2-(2-(Cyclopropylmethylene)hydrazinyl)-4-(4-fluorophenyl)thiazole] | 25
Brc1ccc(-c2csc(N/N=C/C3CC3)n2)cc1 [Compound 3b, (E)-4-(4-Bromophenyl)-2-(2-(cyclopropylmethylene)hydrazinyl)thiazole] | 0
Clc1ccc(-c2csc(N/N=C/C3CC3)n2)cc1 [Compound 3c, (E)-4-(4-Chlorophenyl)-2-(2-(cyclopropylmethylene)hydrazinyl)thiazole] | 25
Cc1ccc(-c2csc(N/N=C/C3CC3)n2)cc1 [Compound 3d, (E)-2-(2-(Cyclopropylmethylene)hydrazinyl)-4-p-tolylthiazole] | 50
FC(F)(F)c1ccc(-c2csc(N/N=C/C3CC3)n2)cc1 [Compound 3e, (E)-2-(2-(Cyclopropylmethylene)hydrazinyl)-4-(4-(trifluoromethyl)phenyl)thiazole] | 25
COc1ccc(-c2csc(N/N=C/C3CC3)n2)cc1 [Compound 3f, (E)-2-(2-(Cyclopropylmethylene)hydrazinyl)-4-(4-methoxyphenyl)thiazole] | 50
Fc1ccc(-c2csc(N/N=C/C3CC3)n2)c(F)c1 [Compound 3g, (E)-2-(2-(Cyclopropylmethylene)hydrazinyl)-4-(2,4-difluorophenyl)thiazole] | 25
N#Cc1ccc(-c2csc(N/N=C/C3CC3)n2)cc1 [Compound 3h, (E)-4-(2-(2-(Cyclopropylmethylene)hydrazinyl)thiazol-4-yl)benzonitrile] | 50
[N-]=[N+]=Nc1ccc(-c2csc(N/N=C/C3CC3)n2)cc1 [Compound 3i, (E)-4-(4-Azidophenyl)-2-(2-(cyclopropylmethylene)hydrazinyl)thiazole] | 75
O=[N+]([O-])c1ccc(-c2csc(N/N=C/C3CC3)n2)cc1 [Compound 3j, (E)-2-(2-(Cyclopropylmethylene)hydrazinyl)-4-(4-nitrophenyl)thiazole] | 0

Same assay, conditions: mice, 100 mg/kg

Structure (SMILES) | animals protected from seizures [%]
[N-]=[N+]=Nc1ccc(-c2csc(N/N=C/C3CC3)n2)cc1 [Compound 3i, (E)-4-(4-Azidophenyl)-2-(2-(cyclopropylmethylene)hydrazinyl)thiazole] | 75

The compounds below were run on L929 and VERO cell lines (assay: MTT cytotoxicity assay). Settings: 24 h, higher concentrations not reached due to limited solubility.
Assay type: cell-based, mouse; African green monkey

Structure (SMILES) | highest possible non-cytotoxic concentration [µg/mL]
Fc1ccc(-c2csc(N/N=C/C3CC3)n2)cc1 [Compound 3a, (E)-2-(2-(Cyclopropylmethylene)hydrazinyl)-4-(4-fluorophenyl)thiazole] | 31.25
Brc1ccc(-c2csc(N/N=C/C3CC3)n2)cc1 [Compound 3b, (E)-4-(4-Bromophenyl)-2-(2-(cyclopropylmethylene)hydrazinyl)thiazole] | 7.81
Clc1ccc(-c2csc(N/N=C/C3CC3)n2)cc1 [Compound 3c, (E)-4-(4-Chlorophenyl)-2-(2-(cyclopropylmethylene)hydrazinyl)thiazole] | 7.81
Cc1ccc(-c2csc(N/N=C/C3CC3)n2)cc1 [Compound 3d, (E)-2-(2-(Cyclopropylmethylene)hydrazinyl)-4-p-tolylthiazole] | 31.25
FC(F)(F)c1ccc(-c2csc(N/N=C/C3CC3)n2)cc1 [Compound 3e, (E)-2-(2-(Cyclopropylmethylene)hydrazinyl)-4-(4-(trifluoromethyl)phenyl)thiazole] | 3.91
COc1ccc(-c2csc(N/N=C/C3CC3)n2)cc1 [Compound 3f, (E)-2-(2-(Cyclopropylmethylene)hydrazinyl)-4-(4-methoxyphenyl)thiazole] | 31.25
Fc1ccc(-c2csc(N/N=C/C3CC3)n2)c(F)c1 [Compound 3g, (E)-2-(2-(Cyclopropylmethylene)hydrazinyl)-4-(2,4-difluorophenyl)thiazole] | 15.63
N#Cc1ccc(-c2csc(N/N=C/C3CC3)n2)cc1 [Compound 3h, (E)-4-(2-(2-(Cyclopropylmethylene)hydrazinyl)thiazol-4-yl)benzonitrile] | 31.25
[N-]=[N+]=Nc1ccc(-c2csc(N/N=C/C3CC3)n2)cc1 [Compound 3i, (E)-4-(4-Azidophenyl)-2-(2-(cyclopropylmethylene)hydrazinyl)thiazole] | 15.63
O=[N+]([O-])c1ccc(-c2csc(N/N=C/C3CC3)n2)cc1 [Compound 3j, (E)-2-(2-(Cyclopropylmethylene)hydrazinyl)-4-(4-nitrophenyl)thiazole] | 31.25
